Measurements taken from patent publication US12680083B2, “Media for culturing naive human pluripotent stem cells” (Yeda Research and Development Co. Ltd., priority 2014, dated 2026).

Tests used:
[1] = test system: WIBR3 hESCs with ESRRB mCherry knock-in reporter; test: FACS analysis of ESRRB-mCherry knock-in reporter; format: cell-based, human
Description: FIGS. 26A-C depict the targeting human ESRRB (a gene/transcription factor) locus with knockin mCherry fluorescent reporter. FIG. 26A-Targeting scheme is illustrated. Scissors indicate CRISPR-sgRNA cut site. In order to create mCherry reporter co-expressed with endogenous human ESRRB locus, the present inventors have chosen to knock in p2a-mCherry coding sequence in frame with the last exon of the human ESRRB gene. The present inventors have inserted oligos specific for the stop codon region of ESRRB gene into px335 plasmid which encodes CAS9 nickase and sgRNA. The present inventors have targeted WIBR3 human ESC OCT4 GFP knockin cell line. The efficiency of the targeting was about 30% (15 out of 48 clones) as verified by external PCR. Correct targeting was also verified by Southern Blot (SB) with external and anti-mCherry probes (FIG. 26B). After Neo cassette excision with Flippase, the whole targeted locus from one of the clones was amplified and sequenced. Clones 2-6 were correctly targeted (FIG. 26C).
FIGS. 26D-H are FACS analyses depicting expression of ESRRB-mCherry reporter in PSCs.

PKCδ = PKCδ (Homo sapiens, UniProt Q05655); conditions: cited from earlier work
PKCζ = target: T1, PKCζ (Homo sapiens, UniProt Q05513); conditions: cited from earlier work
T1 sequence (Q05513 1-592): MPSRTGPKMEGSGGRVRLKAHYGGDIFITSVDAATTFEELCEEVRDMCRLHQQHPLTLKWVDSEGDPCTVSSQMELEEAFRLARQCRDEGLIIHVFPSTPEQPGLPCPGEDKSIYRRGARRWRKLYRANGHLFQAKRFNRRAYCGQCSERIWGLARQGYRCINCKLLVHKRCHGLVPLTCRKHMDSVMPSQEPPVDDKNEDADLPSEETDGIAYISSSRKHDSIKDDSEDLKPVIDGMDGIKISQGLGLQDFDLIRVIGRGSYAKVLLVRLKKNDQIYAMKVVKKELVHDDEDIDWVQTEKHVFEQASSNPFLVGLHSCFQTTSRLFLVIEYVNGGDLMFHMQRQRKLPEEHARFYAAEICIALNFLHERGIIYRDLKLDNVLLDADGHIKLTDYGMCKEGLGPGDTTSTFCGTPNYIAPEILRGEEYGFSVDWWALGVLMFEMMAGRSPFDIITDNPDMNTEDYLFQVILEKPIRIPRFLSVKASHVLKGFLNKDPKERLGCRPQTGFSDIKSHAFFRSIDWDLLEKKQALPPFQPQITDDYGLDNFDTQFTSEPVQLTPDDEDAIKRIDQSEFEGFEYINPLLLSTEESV

PKCα = PKCα (Homo sapiens, UniProt P17252); conditions: cited from earlier work
PKCγ = PKCγ (Homo sapiens, UniProt P05129); conditions: cited from earlier work
PKCβ = PKCβ (Homo sapiens, UniProt P05771); conditions: cited from earlier work
PKCμ = target: T2, PKCμ (Homo sapiens, UniProt Q15139); conditions: cited from earlier work
T2 sequence (Q15139 1-912): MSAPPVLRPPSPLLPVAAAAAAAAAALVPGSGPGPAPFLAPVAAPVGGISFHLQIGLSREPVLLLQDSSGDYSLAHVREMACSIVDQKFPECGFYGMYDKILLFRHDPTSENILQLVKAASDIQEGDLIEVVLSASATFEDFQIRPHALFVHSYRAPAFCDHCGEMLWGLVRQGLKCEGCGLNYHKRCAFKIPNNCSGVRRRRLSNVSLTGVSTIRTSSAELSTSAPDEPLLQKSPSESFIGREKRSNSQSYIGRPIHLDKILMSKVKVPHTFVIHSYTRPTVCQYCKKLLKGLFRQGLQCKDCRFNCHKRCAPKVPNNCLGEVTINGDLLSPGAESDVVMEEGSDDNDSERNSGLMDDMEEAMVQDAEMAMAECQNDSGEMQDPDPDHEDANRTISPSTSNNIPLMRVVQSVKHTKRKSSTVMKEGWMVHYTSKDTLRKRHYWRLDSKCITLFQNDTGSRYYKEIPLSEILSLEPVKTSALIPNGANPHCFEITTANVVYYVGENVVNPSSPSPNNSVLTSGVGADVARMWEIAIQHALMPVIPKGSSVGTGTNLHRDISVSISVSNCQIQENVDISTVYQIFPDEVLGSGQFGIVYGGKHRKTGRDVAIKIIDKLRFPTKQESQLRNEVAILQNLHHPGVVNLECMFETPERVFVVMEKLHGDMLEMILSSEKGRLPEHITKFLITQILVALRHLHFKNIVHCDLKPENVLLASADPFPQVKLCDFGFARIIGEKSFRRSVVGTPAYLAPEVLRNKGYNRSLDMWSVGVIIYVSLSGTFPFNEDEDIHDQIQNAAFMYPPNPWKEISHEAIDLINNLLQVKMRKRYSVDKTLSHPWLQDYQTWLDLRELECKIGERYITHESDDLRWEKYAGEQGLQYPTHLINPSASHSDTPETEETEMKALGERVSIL

Sequence of PKCβ (P05771 whole entry, species assumed): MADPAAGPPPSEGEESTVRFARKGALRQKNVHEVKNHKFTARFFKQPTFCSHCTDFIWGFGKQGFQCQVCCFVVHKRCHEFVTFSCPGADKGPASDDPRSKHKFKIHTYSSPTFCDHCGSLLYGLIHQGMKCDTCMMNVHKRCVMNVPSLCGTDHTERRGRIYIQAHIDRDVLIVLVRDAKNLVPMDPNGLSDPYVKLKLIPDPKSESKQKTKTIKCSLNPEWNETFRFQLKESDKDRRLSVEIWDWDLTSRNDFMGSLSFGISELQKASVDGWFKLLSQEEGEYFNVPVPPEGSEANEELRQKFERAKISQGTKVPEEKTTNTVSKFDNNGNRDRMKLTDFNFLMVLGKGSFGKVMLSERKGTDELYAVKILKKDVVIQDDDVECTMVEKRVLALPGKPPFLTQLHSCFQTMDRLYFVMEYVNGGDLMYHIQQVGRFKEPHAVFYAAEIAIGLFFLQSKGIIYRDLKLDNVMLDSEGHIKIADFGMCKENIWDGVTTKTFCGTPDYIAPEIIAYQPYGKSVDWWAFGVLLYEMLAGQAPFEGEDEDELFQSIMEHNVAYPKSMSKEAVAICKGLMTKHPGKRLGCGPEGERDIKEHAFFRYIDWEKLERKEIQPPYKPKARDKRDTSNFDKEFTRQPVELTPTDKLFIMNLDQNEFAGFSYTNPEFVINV
Sequence of PKCδ (Q05655 whole entry): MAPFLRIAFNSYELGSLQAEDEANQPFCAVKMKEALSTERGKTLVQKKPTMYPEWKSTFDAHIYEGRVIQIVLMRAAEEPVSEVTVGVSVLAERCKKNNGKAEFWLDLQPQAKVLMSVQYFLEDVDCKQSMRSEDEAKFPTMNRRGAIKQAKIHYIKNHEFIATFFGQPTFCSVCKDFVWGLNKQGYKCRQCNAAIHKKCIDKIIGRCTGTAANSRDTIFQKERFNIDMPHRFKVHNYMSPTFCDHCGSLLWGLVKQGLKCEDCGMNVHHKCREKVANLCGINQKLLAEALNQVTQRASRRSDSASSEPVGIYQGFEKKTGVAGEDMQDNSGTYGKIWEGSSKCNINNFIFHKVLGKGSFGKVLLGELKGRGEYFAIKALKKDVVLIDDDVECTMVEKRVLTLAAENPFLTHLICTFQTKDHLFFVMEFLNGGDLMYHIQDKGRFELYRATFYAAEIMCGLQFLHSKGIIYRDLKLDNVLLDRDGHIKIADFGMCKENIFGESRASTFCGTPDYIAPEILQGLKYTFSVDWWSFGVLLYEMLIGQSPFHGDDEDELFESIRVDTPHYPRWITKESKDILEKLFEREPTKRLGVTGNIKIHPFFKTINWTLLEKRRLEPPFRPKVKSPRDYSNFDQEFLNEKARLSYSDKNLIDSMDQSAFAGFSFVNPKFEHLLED

COc1cc2nc(N3CCCN(C)CC3)nc(NC3CCN(Cc4ccccc4)CC3)c2cc1OC [BIX01294]
ESRRB mCherry expression ([1]; conditions 136 with BIX01294 removed from the culture medium): this effect is lost

COc1ccc2c(c1)c(C1=C(c3c[nH]c4ccccc34)C(=O)NC1=O)cn2CCCN(C)C [Go6983]
IC50 (PKCδ): 10 nM | IC50 (PKCζ): 60 nM | IC50 (PKCα): 7 nM | IC50 (PKCγ): 6 nM | IC50 (PKCβ): 7 nM | IC50 (PKCμ): 20000 nM

B1: Activin A: also known as Inhibin beta A, INHBA; activator of TGF/ACTIVIN pathway (protein, listed as Homo sapiens)
chain: MPLLWLRGFLLASCWIIVRSSPTPGSEGHSAAPDCPSCALAALPKDVPNSQPEMVEAVKKHILNMLHLKKRPDVTQPVPKAALLNAIRKLHVGKVGENGYVEIEDDIGRRAEMNELMEQTSEIITFAESGTARKTLHFEISKEGSDLSVVERAEVWLFLKVPKANRTRTKVTIRLFQQQKHPQGSLDTGEEAEEVGLKGERSELLLSEKVVDARKSTWHVFPVSSSIQRLLDQGKSSLDVRIACEQCQESGASLVLLGKKKKKEEEGEGKKKGGGEGGAGADEEKEQSHRPFLMLQARQSEDHPHRRRRRGLECDGKVNICCKKQFFVSFKDIGWNDWIIAPSGYHANYCEGECPSHIAGTSGSSLSFHSTVINHYRMRGHSPFANLKSCCVPTKLRPMSMLYYDDGQNIIKKDIQNMIVEECGCS
ESRRB mCherry expression ([1]; conditions 136 with Activin A added): this effect is lost
